In patent publication US20220348590A1, “CYCLOOXYGENASE-2 INHIBITORS AND USES THEREOF” (The Board Institute, Inc., priority 2019, published 2022):
≈ marks a conversion by molar mass, not a printed value. Read-outs that look alike come from different tables or passages of the source.

Columns and labels:
[1] = mouse plasma protein binding (PPB) assay; assay type: in vitro ADME; conditions: average, read-out: Mouse Plasma Protein Binding % Bound Avg (converted)
Description: (§1) We have adapted a previously reported cyclooxygenase enzymatic assay utilizing LCMS quantification of PGE2 as the product of COX-1 and COX2 catalyzed conversion of arachidonic acid to evaluate the binding properties of newly synthesized ligands [Cao, 2011]. These optimized and miniaturized (384-well plates) LCMS-based COX-1 and COX2 enzymatic assays enabled us to quickly evaluate newly synthesized ligands for COX2 binding affinity and selectivity vs COX-1. Using a shorter ligand-enzyme incubation time in the LCMS assay (2 minutes vs 10 minutes) also permitted us to prioritize ligands with faster binding kinetics. Considering the relatively slow on-rate kinetics of known coxibs, due to their 3-step binding mechanism [Marnett, 2009], we believe that optimizing this critical parameter will be key to the successful development of a COX2 PET tracer. Using these enzymatic assays, we have evaluated>200 newly synthesized ligands against COX2 and >20 ligands against COX-1. Another critical property necessary for a good PET radiotracer is to have low non-specific binding (NSB) to increase the free fraction and maximize the signal to noise ratio. This property can be evaluated using in-vitro protein binding assays, and we have now evaluated>50 newly synthesized ligands in mouse, rat and human plasma protein binding (PPB) assays as well as >15 ligands in a mouse brain protein binding (BPB) assay.

[2] = Mouse Plasma Protein Stability (% Remaining); assay type: in vitro ADME; conditions: average
[3] = target: T1, ovine COX-1 (oCOX-1) (Ovis aries, UniProt P05979); assay: LCMS-based COX-1 enzymatic inhibition assay (PGE2 quantification); assay type: biochemical; conditions: 10 minutes
T1 construct: purchased Cayman Chemicals (Ann Arbor, Mich.)
T1 sequence (P05979 25-600): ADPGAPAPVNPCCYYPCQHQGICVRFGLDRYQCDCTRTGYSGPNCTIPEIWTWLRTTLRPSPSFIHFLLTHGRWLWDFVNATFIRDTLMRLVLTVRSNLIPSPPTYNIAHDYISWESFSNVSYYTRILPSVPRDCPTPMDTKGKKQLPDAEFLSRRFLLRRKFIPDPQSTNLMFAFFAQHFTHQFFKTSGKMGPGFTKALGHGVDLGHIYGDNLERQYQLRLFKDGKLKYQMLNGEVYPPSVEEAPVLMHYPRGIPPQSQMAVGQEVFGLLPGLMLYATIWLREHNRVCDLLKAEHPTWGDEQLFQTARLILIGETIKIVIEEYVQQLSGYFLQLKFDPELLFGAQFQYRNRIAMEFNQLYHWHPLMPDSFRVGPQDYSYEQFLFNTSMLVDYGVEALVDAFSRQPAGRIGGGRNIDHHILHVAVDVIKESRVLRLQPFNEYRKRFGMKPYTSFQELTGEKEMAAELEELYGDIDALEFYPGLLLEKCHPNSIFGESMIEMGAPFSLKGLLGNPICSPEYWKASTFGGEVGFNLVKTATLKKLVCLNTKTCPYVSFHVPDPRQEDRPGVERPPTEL
Outline: (§2)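 PGE2 formed from arachidonic acid (final 5 μM, 2 min) was measured by LC-MS-MS against DMSO controls. Enzyme (oCOX-1 0.1 μg or hCOX2 0.2 μg) with hematin/epinephrine cofactors at pH 8.0 was given 10 min at 37 °C with compound first. Twelve-point curves run three times gave IC50.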

[4] = Human Microsome Stability; assay type: in vitro ADME; conditions: human microsomes
[5] = target: T2, human recombinant COX2 (hCOX2) (UniProt P35354); assay: LCMS-based COX2 enzymatic inhibition assay (PGE2 quantification); assay type: biochemical; set-up: COX2 2 minutes pge2/pge2d4 area ratio Avg; other: 2 minutes; readout pge2/pge2d4 area ratio; average; COX2 2 minutes pge2/pge2d4 area ratio Avg; LLE; average LLE; COX2 2 minutes pge2 area (counts) Avg; readout pge2 area (counts); other: 2 min; "ovine COX2 (oCOX2), human recombinant COX2 (hCOX2)"; conditions: for COX2 2 minutes pge2/pge2d4 area ratio Avg. LLE / COX2 2 minutes pge2 area (counts) Avg. LLE / COX2 10 minutes pge2 area (counts) Avg. LLE: average LLE; for IC50: average
T2 sequence (P35354 1-604): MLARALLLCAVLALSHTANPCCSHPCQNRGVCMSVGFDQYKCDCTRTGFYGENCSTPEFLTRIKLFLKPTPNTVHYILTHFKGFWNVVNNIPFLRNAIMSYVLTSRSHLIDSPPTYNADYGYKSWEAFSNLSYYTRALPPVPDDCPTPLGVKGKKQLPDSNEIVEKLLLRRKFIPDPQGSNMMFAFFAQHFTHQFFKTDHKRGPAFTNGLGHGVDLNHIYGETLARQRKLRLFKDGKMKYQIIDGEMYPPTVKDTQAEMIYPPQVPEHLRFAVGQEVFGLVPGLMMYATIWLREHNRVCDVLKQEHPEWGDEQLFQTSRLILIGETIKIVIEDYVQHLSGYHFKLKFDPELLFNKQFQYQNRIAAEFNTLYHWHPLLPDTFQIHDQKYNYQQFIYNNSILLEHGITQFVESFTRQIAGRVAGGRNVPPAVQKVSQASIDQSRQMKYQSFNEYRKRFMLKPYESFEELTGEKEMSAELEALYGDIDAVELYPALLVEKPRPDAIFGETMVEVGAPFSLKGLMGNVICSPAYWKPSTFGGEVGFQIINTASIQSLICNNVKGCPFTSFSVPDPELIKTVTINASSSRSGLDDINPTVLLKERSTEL
Outline: as §2

[6] = Rat Plasma Protein Stability (% Remaining); assay type: in vitro ADME; conditions: average
[7] = Rat Microsome Stability; assay type: in vitro ADME; conditions: rat microsomes
[8] = PBS Solubility (no DMSO); assay type: physicochemical; conditions: aqueous buffer, thermodynamic from solid, average
[9] = rat plasma protein binding (PPB) assay; assay type: in vitro ADME; conditions: average, read-out: Rat Plasma Protein Binding % Bound Avg (converted)
Description: as §1

[10] = human plasma protein binding (PPB) assay; assay type: in vitro ADME; conditions: average, read-out: Human Plasma Protein Binding % Bound Avg (converted)
Description: as §1

[11] = Human Plasma Protein Stability (% Remaining); assay type: in vitro ADME; conditions: average
[12] = Mouse Microsome Stability; assay type: in vitro ADME; conditions: mouse microsomes
[13] = tested on: MDR1; assay: MDR1-MDCKII permeability and efflux; assay type: in vitro ADME; conditions: dog, MDCK-MDR1
[14] = readout pge2/pge2d4 area ratio, average LLE
[15] = readout pge2/pge2d4 area ratio, average, read-out: COX1 10 minutes pge2/pge2d4 area ratio Avg. IC50
[16] = readout pge2 area (counts), average LLE
[17] = readout pge2 area (counts), average, read-out: COX1 10 minutes pge2 area (counts) Avg. IC50
[18] = 2 minutes, readout pge2/pge2d4 area ratio
[19] = 2 minutes, readout pge2/pge2d4 area ratio, read-out: COX2 2 minutes pge2/pge2d4 area ratio Avg. IC50
[20] = 2 minutes, readout pge2 area (counts)
[21] = 2 minutes, readout pge2 area (counts), read-out: COX2 2 minutes pge2 area (counts) Avg. IC50
[22] = 10 minutes, readout pge2 area (counts)
[23] = 10 minutes, readout pge2 area (counts), read-out: COX2 10 minutes pge2 area (counts) Avg. IC50

SMILES: CS(=O)(=O)c1ccc(-c2ccc3ccn(Cc4ccoc4)c3n2)cc1 [Compound 26]
- fraction unbound [1]: 0.018
- Mouse Plasma Protein Stability % Remaining Avg [2]: 97.5%
- COX1 10 minutes pge2/pge2d4 area ratio Avg. LLE [3, 14]: 0.9493
- IC50 [3, 15]: 11400 nM
- COX1 10 minutes pge2 area (counts) Avg. LLE [3, 16]: 0.6431
- IC50 [3, 17]: 16700 nM
- Human Microsome Stability % Remaining Avg [4]: 43%
- COX2 2 minutes pge2/pge2d4 area ratio Avg. LLE [5, 18]: 3.778
- IC50 [5, 19]: 12 nM
- COX2 2 minutes pge2 area (counts) Avg. LLE [5, 20]: 3.652
- IC50 [5, 21]: 16.6 nM

SMILES: COc1ncc(NCc2ccco2)nc1-c1ccc(S(C)(=O)=O)cc1 [Compound 43]
- fraction unbound [1]: 0.046
- Mouse Plasma Protein Stability % Remaining Avg [2]: 102.6%
- Rat Plasma Protein Stability % Remaining Avg [6]: 107.3%
- COX1 10 minutes pge2 area (counts) Avg. LLE [3, 16]: 2.44
- IC50 [3, 17]: 42700 nM
- Rat Microsome Stability % Remaining Avg [7]: 11.1%
- solubility [8]: 21 µM (≈ 7.55 µg/mL)
- fraction unbound [9]: 0.028
- COX2 2 minutes pge2/pge2d4 area ratio Avg. LLE [5, 18]: 5.827
- IC50 [5, 19]: 19.5 nM
- COX2 2 minutes pge2 area (counts) Avg. LLE [5, 20]: 5.859
- IC50 [5, 21]: 18.5 nM

SMILES: CS(=O)(=O)c1ccc(-c2nc(OCc3cccs3)cc3ccoc23)cc1 [Compound 5]
- Rat Plasma Protein Stability % Remaining Avg [6]: 99%
- fraction unbound [10]: 0.001
- fraction unbound [9]: 0.001
- IC50 [5, 19]: 6.05 nM
- IC50 [5, 21]: 7.14 nM
- Human Plasma Protein Stability % Remaining Avg [11]: 102%

SMILES: CS(=O)(=O)c1ccc(-c2nc(NCc3ccoc3)ccc2F)cc1 [Compound 48]
- Rat Plasma Protein Stability % Remaining Avg [6]: 128%
- fraction unbound [10]: 0.02
- solubility [8]: 40 µM (≈ 13.9 µg/mL)
- fraction unbound [9]: 0.031
- Human Microsome Stability % Remaining Avg [4]: 34%
- IC50 [5, 19]: 22 nM
- IC50 [5, 21]: 20.1 nM
- Human Plasma Protein Stability % Remaining Avg [11]: 96%

SMILES: NS(=O)(=O)c1ccc(-c2cncc(OCc3cccs3)n2)cc1 [Compound 3]
- fraction unbound [1]: 0.015
- Mouse Plasma Protein Stability % Remaining Avg [2]: 94.9%
- COX1 10 minutes pge2/pge2d4 area ratio Avg. LLE [3, 14]: 4.28
- IC50 [3, 15]: 1100 nM
- COX1 10 minutes pge2 area (counts) Avg. LLE [3, 16]: 4.323
- IC50 [3, 17]: 913 nM
- solubility [8]: 8.5 µM (≈ 2.95 µg/mL)
- COX2 2 minutes pge2/pge2d4 area ratio Avg. LLE [5, 18]: 6.484
- IC50 [5, 19]: 5.55 nM
- COX2 2 minutes pge2 area (counts) Avg. LLE [5, 20]: 6.512
- IC50 [5, 21]: 5.38 nM

SMILES: CS(=O)(=O)c1ccc(-c2cncc(NCc3cccs3)n2)cn1 [Compound 141]
- Mouse Microsome Stability % Remaining Avg [12]: 10%
- Human Microsome Stability % Remaining Avg [4]: 55%
- COX2 2 minutes pge2/pge2d4 area ratio Avg. LLE [5, 18]: 5.497
- IC50 [5, 19]: 213 nM
- COX2 2 minutes pge2 area (counts) Avg. LLE [5, 20]: 5.579
- IC50 [5, 21]: 176 nM
- COX2 10 minutes pge2 area (counts) Avg. LLE [5, 22]: 6.4815
- IC50 [5, 23]: 22.3 nM

SMILES: CS(=O)(=O)c1ccc(-c2cnc3ccn(Cc4cccs4)c3n2)cc1 [Compound 74]
- efflux ratio [13]: 1
- Papp A→B ([13]; A-B, read-out: MDR1-MCKII Papp A-B): 32.2 ×10⁻⁶ cm/s
- Papp B→A ([13]; B-A, read-out: MDR1-MCKII Papp B-A): 32 ×10⁻⁶ cm/s
- COX1 10 minutes pge2/pge2d4 area ratio Avg. LLE ([3]; pge2/pge2d4 area ratio, head of this section not shown, inferred): 3.046
- COX1 10 minutes pge2 area (counts) Avg. LLE ([3]; pge2 area (counts), head of this section not shown, inferred): 2.996
- IC50 ([3]; pge2 area (counts), head of this section not shown, inferred, read-out: COX1 10 minutes pge2 area (counts) Avg. IC50): 342 nM
- IC50 [3, 15]: 305 nM
- COX2 2 minutes pge2/pge2d4 area ratio Avg. LLE [5, 18]: 3.899
- IC50 [5, 19]: 43.2 nM
- COX2 2 minutes pge2 area (counts) Avg. LLE [5, 20]: 3.894
- IC50 [5, 21]: 47.4 nM
- COX2 10 minutes pge2 area (counts) Avg. LLE [5, 22]: 5.561
- IC50 [5, 23]: 0.932 nM

SMILES: CS(=O)(=O)c1ccc(-c2cccc(OCc3ccsc3)n2)cc1 [Compound 9]
- Rat Plasma Protein Stability % Remaining Avg [6]: 121%
- COX1 10 minutes pge2/pge2d4 area ratio Avg. LLE [3, 14]: 0.4674
- IC50 [3, 15]: 48900 nM
- fraction unbound [10]: 0.003
- solubility [8]: 3.7 µM (≈ 1.28 µg/mL)
- fraction unbound [9]: 0.003
- Human Microsome Stability % Remaining Avg [4]: 35%
- COX2 2 minutes pge2/pge2d4 area ratio Avg. LLE [5, 18]: 4.3
- IC50 [5, 19]: 8.03 nM
- COX2 2 minutes pge2 area (counts) Avg. LLE [5, 20]: 4.276
- IC50 [5, 21]: 8.91 nM
- Human Plasma Protein Stability % Remaining Avg [11]: 114%
